The values that follow come from EP1212395B1, “IMPROVED METHODS, COMPOSITIONS, AND ARTICLES FOR ODOR CONTROL” (THE PROCTER & GAMBLE COMPANY, priority 1999, dated 2001).

Where a name gives a salt, the structure may show the parent alone.

The nature of the first data set: Interaction of perfume components with cyclodextrin (CD). The class given is physicochemical. The settings on record: perfume component with cyclodextrin. From the text: The following table illustrates the molecular weight property of some of the preferred perfume versus non-preferred perfume components.
Examples of Perfume Components for CD Interaction
In the case of `CC(=O)/C=C/C1C(C)=CCCC1(C)C` (centres unmarked) [a-ionone], the CD interaction result is on record as “strong”.

For `CC(=O)C(C)=C(C)C(C)C(C)(C)C` (centres unmarked) [Koavone], the CD interaction result is on record as “strong”. Turning to `CCCCCCOC(=O)c1ccccc1O` [Hexyl Salicylate], the CD interaction result is reported as “weak”. For the molecule `CCCCCCCCCCCCCC(=O)OC(C)C` [Iso-propyl Myristate], the CD interaction result is listed as “weak”. As to `CC(=O)OC1CC2CC1C1CC=CC21` (centres unmarked) [Flor Acetate], the CD interaction result is reported as “strong”. As to `CC(C=O)Cc1ccc(C(C)(C)C)cc1` (centres unmarked) [Lilial, Lilial (p-t-bucinal)], the CD interaction result is “strong”.

Take `CCC(=O)OC1CC2CC1C1CC=CC21` (centres unmarked) [Frutene]: the CD interaction result is given as “strong”.

Consider `CC(C)(O)CCCC1=CCC(C=O)CC1` (centres unmarked) [Lyral], for which the CD interaction entry was “weak”.

With `CC(=O)C1(C)CC2=C(CCCC2(C)C)CC1C` (centres unmarked) [Iso-E Super], the CD interaction result is given as “weak”. For `CCCCCCC(C=O)=Cc1ccccc1` [Hexyl cinnamic Aldehyde], the CD interaction entry was “weak”. Consider `CCCCCC1C(=O)CCC1CC(=O)OC` (centres unmarked) [Methyl Dihydro Jasmonate], for which the CD interaction result is “weak”. Turning to a-Me Ionone, the CD interaction entry is listed as “strong”.

For the molecule `CCOC(=O)c1ccccc1C(=O)OCC` [Diethyl Phthalate], the CD interaction entry is listed as “weak”. Consider `CC(C=O)Cc1ccc(C(C)C)cc1` (centres unmarked) [Cymal], for which the CD interaction result is given as “strong”. Turning to `CC(=O)OC(C)(C)C1CC=C(C)CC1` (centres unmarked) [Terpinyl Acetate], the CD interaction result is listed as “significant”. As to `CC1COCc2cc3c(cc21)C(C)(C)C(C)C3(C)C` (centres unmarked) [Galaxolide], the CD interaction entry was “weak”. As to `CC(=O)OC1CCC(C(C)(C)C)CC1` (centres unmarked) [Vertenex, para-tert-butylcyclohexyl acetate], the CD interaction entry is listed as “strong”. On to `O=C(Cc1ccccc1)OCCc1ccccc1` [Phenyl-Ethyl-Phenyl Acetate], for which the CD interaction result was “weak”.

Assay in another data set: not given
The note with it: in water; cited from earlier work.
Take `CC1(C)C(=O)N(CO)C(=O)N1CO` [DMDM hydantoin, 1,3-bis(hydroxymethyl)-5,5-dimethyl-2,4-imidazolidinedione]: the solubility in water entry is on record as “more than 50%”. On to `[H]/N=C(\N/C(=N/[H])NCCCCCCNC(=N)NC(=N)Nc1ccc(Cl)cc1)Nc1ccc(Cl)cc1` [digluconate salt, 1,1'-hexamethylene bis(5-(p-chlorophenyl)biguanide), reference compound], for which the solubility in water result is “about 70%”.

Consider `[H]/N=C(\N/C(=N/[H])NCCCCCCNC(=N)NC(=N)Nc1ccc(Cl)cc1)Nc1ccc(Cl)cc1` [diacetate salt, 1,1'-hexamethylene bis(5-(p-chlorophenyl)biguanide), reference compound], for which the solubility in water entry is given as “about 1.8%”.

Take `OCc1ccccc1` [benzyl alcohol]: the solubility in water entry is “about 4%”.

On to `OCCc1ccccc1` [2-phenylethanol], for which the solubility in water result is on record as “about 2%”. For the molecule `[Na+].[O-][n+]1ccccc1[S-]` [sodium pyrithione], the solubility in water entry is listed as “about 50%”.

On to `CC(C)(O)C(Cl)(Cl)Cl` [chlorobutanol, 1,1,1-Trichloro-2-methylpropan-2-ol], for which the solubility in water entry is “about 0.8%”. Turning to `OCCOc1ccccc1` [2-phenoxyethanol], the solubility in water entry is on record as “about 2.67%”. Turning to `O=[N+]([O-])C1(Br)COCOC1` [Bronidox L, 5-bromo-5-nitro-1,3-dioxane], the solubility in water result is reported as “about 0.46%”.

The same data set, now with this note: result in words; cited from earlier work.
For the molecule `ClC=CC[N+]12CN3CN(CN(C3)C1)C2.[Cl-]` [Dowicil 200, 1-(3-Chlorallyl) -3,5,7-triaza-1-azoniaadamantane chloride], the solubility in water entry is recorded as “freely soluble in water”.

Assay in a further data set: not given
The settings on record: cited from earlier work.
On to `O=c1[nH]sc2ccccc12` [Proxel, 1,2-benzisothiazolin-3-one], for which the “stability over a wide pH range” value is listed as 4-12. For `Cn1sc2c(c1=O)CCC2` [Promexal, 2-methyl-4,5-trimethylene-4-isothiazolin-3-one], the “stability over a wide pH range” value was 4-12.

A further data set can be described thus: Elevation in surface tension of surfactant solution in the presence of cyclodextrin. The class given is physicochemical. The settings on record: in the presence of a typical cyclodextrin (about 1% solution). From the text:
Suitable cyclodextrin-compatible surfactants can be readily identified by the absence of effect of cyclodextrin on the surface tension provided by the surfactant. This is achieved by determining the surface tension (in dyne/cm) of aqueous solutions of the surfactant in the presence and in the absence of about 1% of a specific cyclodextrin in the solutions. The aqueous solutions contain surfactant at concentrations of approximately 0.5%, 0.1%, 0.01%, and 0.005%. The cyclodextrin can affect the surface activity of a surfactant by elevating the surface tension of the surfactant solution. If the surface tension at a given concentration in water differs by more than about 10% from the surface tension of the same surfactant in the 1% solution of the cyclodextrin, that is an indication of a strong interaction between the surfactant and the cyclodextrin. The preferred surfactants herein should have a surface tension in an aqueous solution that is different (lower) by less than about 10%, preferably less than about 5%, and more preferably less than about 1% from that of the same concentration solution containing 1% cyclodextrin.
The cyclodextrin-compatible surfactants described above are either weakly interactive with cyclodextrin (less than 5% elevation in surface tension), or non-interactive (less than 1% elevation in surface tension).
As for dodecanolpoly(6)ethoxylate, the “elevation in surface tension” value was above 10%. On to `CCCCCCCCCCCCOS(=O)(=O)[O-].[Na+]` [sodium dodecyl sulfate], for which the “elevation in surface tension” value was above 10%.
